The values below come from patent US3953478A, “Tetrahydrofuranyl bromoacetates biocides” (Stauffer Chemical Company, priority 1975, dated 1976).

Common to all, as to type: cell-based
One experiment deals with Aspergillus fumigatus. The experiment can be described thus: In Vitro Agar Screening Test. The following applies: potato dextrose agar, 30°C, levels 1, 5, 10, 50 μg/ml, read-out: Minimum Inhibitory Concentration. The protocol: (§1) This test measures the bactericidal, fungicidal and algaecidal properties of a compound when in contact with growing bacteria, fungi or algae in an artificial medium. The test is conducted by adding 20 ml portions of a suitable warm sterile agar solution into 20 × 100 mm Petri dishes at levels of 1, 5, 10 and 50 μg/ml and mixed with the warm mobile agar solution. The treated agar mixture is then allowed to come to room temperature and solidify. Cells of the chosen organism are streaked on the surface of the solidified agar and are then incubated for such lengths of time that untreated samples containing no toxicant show luxurious growth typical of the particular organism. This time varies from 24 hours to 1 week depending on the particular organism. The fungi are incubated at 30°C and the bacteria are incubated at 37°C. The algae are incubated at room temperature under artificial light. Nutrient agar is used as the medium in this test for the bacteria. Potato dextrose agar is used as the medium for the fungi with the exception of Trichophyton mentagrophytes for which Emmons agar is used. A modified Jack Meyers agar is used for the growth of the algae.
(§2) The extent of growth is noted at the end of the incubation period.

The subject of a further experiment is Aspergillus niger. The experiment can be described thus: In Vitro Agar Screening Test. The following applies: potato dextrose agar, 30°C, levels 1, 5, 10, 50 μg/ml, read-out: Minimum Inhibitory Concentration. As for the experimental part:
as §1, §2

The next experiment concerns Aspergillus oryzae. Kind of experiment: In Vitro Agar Screening Test. The following applies: potato dextrose agar, 30°C, levels 1, 5, 10, 50 μg/ml, read-out: Minimum Inhibitory Concentration. The protocol: as §1, §2
The subject of the next experiment is Bacillus cereus. Kind of experiment: In Vitro Agar Screening Test. The conditions noted are these: nutrient agar, 37°C, levels 1, 5, 10, 50 μg/ml, read-out: Minimum Inhibitory Concentration. As for the experimental part: as §1, §2
In another experiment the test system is Chlorella pyrenoidosa. The experiment can be described thus: In Vitro Agar Screening Test. The conditions noted are these: Auxenochlorella pyrenoidosa, modified Jack Meyers agar, room temperature, artificial light, levels 1, 5, 10, 50 μg/ml, read-out: Minimum Inhibitory Concentration. As for the experimental part:
as §1, §2

Another experiment concerns Enterobacter aerogenes. The experiment can be described thus: In Vitro Agar Screening Test. The conditions noted are these: Klebsiella aerogenes, nutrient agar, 37°C, levels 1, 5, 10, 50 μg/ml, read-out: Minimum Inhibitory Concentration. As for the experimental part:
as §1, §2

The next experiment relates to Escherichia coli. The experiment can be described thus: In Vitro Agar Screening Test. The following applies: nutrient agar, 37°C, levels 1, 5, 10, 50 μg/ml, read-out: Minimum Inhibitory Concentration. As for the experimental part: as §1, §2
Another experiment concerns Euglena gracilis. The experiment can be described thus: In Vitro Agar Screening Test. The following applies: modified Jack Meyers agar, room temperature, artificial light, levels 1, 5, 10, 50 μg/ml, read-out: Minimum Inhibitory Concentration. As for the experimental part: as §1, §2
Another experiment deals with Pencillium expansum. The experiment can be described thus: In Vitro Agar Screening Test. The conditions noted are these: potato dextrose agar, 30°C, levels 1, 5, 10, 50 μg/ml, read-out: Minimum Inhibitory Concentration. As for the experimental part: as §1, §2
The subject of another experiment is Pencillium ochra-chloron. Kind of experiment: In Vitro Agar Screening Test. The conditions noted are these: potato dextrose agar, 30°C, levels 1, 5, 10, 50 μg/ml, read-out: Minimum Inhibitory Concentration. As for the experimental part: as §1, §2
The next experiment concerns Pseudomonas aeruginosa. Kind of experiment: In Vitro Agar Screening Test. The conditions noted are these: nutrient agar, 37°C, levels 1, 5, 10, 50 μg/ml, read-out: Minimum Inhibitory Concentration. As for the experimental part: as §1, §2
A further experiment has as its system Pseudomonas fluorescens. The experiment can be described thus: In Vitro Agar Screening Test. The conditions noted are these: nutrient agar, 37°C, levels 1, 5, 10, 50 μg/ml, read-out: Minimum Inhibitory Concentration. As for the experimental part:
as §1, §2

The subject of the next experiment is Scenedesmus obliquus. Kind of experiment: In Vitro Agar Screening Test. The following applies: Tetradesmus obliquus, modified Jack Meyers agar, room temperature, artificial light, levels 1, 5, 10, 50 μg/ml, read-out: Minimum Inhibitory Concentration. As for the experimental part:
as §1, §2

Another experiment deals with Trichoderma sp. Kind of experiment: In Vitro Agar Screening Test. The conditions noted are these: potato dextrose agar, 30°C, levels 1, 5, 10, 50 μg/ml, read-out: Minimum Inhibitory Concentration. The protocol: as §1, §2
The subject of experiment [1] is Trichophyton mentagrophytes. The experiment can be described thus: In Vitro Agar Screening Test. The conditions noted are these: Emmons agar, 30°C, levels 1, 5, 10, 50 μg/ml, read-out: Minimum Inhibitory Concentration. The protocol:
as §1, §2

The test system of a further experiment is Staphylococcus aureus. The experiment can be described thus: Staphylococcus Aureus Use Dilution Test. The following applies: Tryptic Soy Broth, 24 hours at 37°C, minimum concentration in which no growth occurs, read-out: Minimum Inhibitory Concentration. The protocol: This test measures the bacteriostatic effectiveness of a particular test compound against Staphylococcus aureus. Tryptic Soy Broth is dispensed aseptically into sterile 13 × 100 mm clear glass culture tubes. The first tube receives 3.6 ml of medium and tubes 2 through 10 receive 2.0 ml of medium. The test compound is dissolved in acetone to give 10 ml of a solution of 0.10% of the test compound. Using a sterile syringe, 0.4 ml of the test compound solution is placed in the first tube containing the 3.6 ml of sterile broth and mixed thoroughly. This operation is continued through to the tenth tube. From the tenth tube, 2.0 ml of solution is removed and discarded. Each tube is then inoculated with 0.1 ml of a 24-hour culture of Staphylococcus aureus in Tryptic Soy Broth, and the mixture is mixed thoroughly using a Vortex mixer. A control is also set up to be sure that the inoculum is viable using a tube of sterile broth containing no added toxicant. The tubes are incubated for 24 hours at 37°C. The tubes are then examined to determine growth of the organism in the culture tubes. The minimum concentration in which no growth of the organism occurs is recorded. The following table gives the minimum inhibitory concentration necessary to control the organism: […]

≈ marks a conversion by molar mass, not a printed value.

With `O=C(CBr)OC1CCOC1` (stereo not shown) [Compound No. 1, 3-bromoacetoxy tetrahydrofuran], the MIC with Aspergillus fumigatus stood at 50 µg/mL (≈ 239 µM); with Aspergillus niger it was 5 µg/mL (≈ 23.9 µM); in the experiment on Aspergillus oryzae, 50 µg/mL (≈ 239 µM); in the experiment on Bacillus cereus, 50 µg/mL (≈ 239 µM); in the experiment with Chlorella pyrenoidosa, 1 µg/mL (≈ 4.78 µM); in the experiment with Enterobacter aerogenes, 50 µg/mL (≈ 239 µM). Further, the MIC with Escherichia coli was greater than 50 µg/mL; in the experiment with Euglena gracilis, 5 µg/mL (≈ 23.9 µM); in the experiment on Pencillium expansum, 50 µg/mL (≈ 239 µM); in the experiment on Pencillium ochra-chloron, 50 µg/mL (≈ 239 µM); with Pseudomonas aeruginosa it was greater than 50 µg/mL; in the experiment on Pseudomonas fluorescens, greater than 50 µg/mL. Further, the MIC in the experiment with Scenedesmus obliquus was determined as 1 µg/mL (≈ 4.78 µM); in the experiment on Trichoderma sp. it was 50 µg/mL (≈ 239 µM); in experiment [1] it was 50 µg/mL (≈ 239 µM); in the experiment on Staphylococcus aureus it was 12.5 µg/mL (≈ 59.8 µM).
